From US8962574B2 (Boehringer Ingelheim International GmbH, priority 2008, dated 2015)

Tests used:
AF patients = conditions: ACTIVE W, warfarin arm; cited from earlier work
[1] = system: patients with atrial fibrillation at risk of stroke; test: RELY Clinical Trial, dabigatran 110 mg or 150 mg twice daily versus warfarin; assay type: in vivo
From the text: The primary study outcome was stroke or systemic embolism. The primary safety outcome was major hemorrhage. Secondary outcomes were stroke, systemic embolism and death. […] All other bleeding was considered minor.
All analyses were based on intention-to-treat.

Compound: CC(=O)CC(c1ccccc1)c1c(O)c2ccccc2oc1=O (racemic) [warfarin, 3-(α-acetonylbenzyl)4-hydroxycoumarin]
- Myocardial Infarction (AF patients): 0.6% (warfarin)
- Stroke and systemic embolism (per 100 patient years) (AF patients): 1.5% (warfarin)
- ALT or AST >3xULN ([1]; adjusted to INR 2.0 to 3.0): (2.1) %
- ALT or AST >3xULN with concurrent bilirubin >2xULN ([1]; adjusted to INR 2.0 to 3.0): (0.4) %
- ALT or AST >3xULN with concurrent bilirubin >2xULN, number of patients ([1]; adjusted to INR 2.0 to 3.0): 22
- ALT or AST >3xULN, number of patients ([1]; adjusted to INR 2.0 to 3.0): 126
- Adverse Event Arthralgia ([1]; adjusted to INR 2.0 to 3.0): (5.5) %
- Adverse Event Arthralgia, number of patients ([1]; adjusted to INR 2.0 to 3.0): 328
- Adverse Event Atrial fibrillation ([1]; adjusted to INR 2.0 to 3.0): (5.4) %
- Adverse Event Atrial fibrillation, number of patients ([1]; adjusted to INR 2.0 to 3.0): 326
- Adverse Event Back pain ([1]; adjusted to INR 2.0 to 3.0): (5.5) %
- Adverse Event Back pain, number of patients ([1]; adjusted to INR 2.0 to 3.0): 331
- Adverse Event Chest pain ([1]; adjusted to INR 2.0 to 3.0): (5.7) %
- Adverse Event Chest pain, number of patients ([1]; adjusted to INR 2.0 to 3.0): 342
- Adverse Event Cough ([1]; adjusted to INR 2.0 to 3.0): (5.8) %
- Adverse Event Cough, number of patients ([1]; adjusted to INR 2.0 to 3.0): 345
- Adverse Event Diarrhea ([1]; adjusted to INR 2.0 to 3.0): (5.5) %
- Adverse Event Diarrhea, number of patients ([1]; adjusted to INR 2.0 to 3.0): 327
- Adverse Event Dizziness ([1]; adjusted to INR 2.0 to 3.0): (9.3) %
- Adverse Event Dizziness, number of patients ([1]; adjusted to INR 2.0 to 3.0): 555
- Adverse Event Dyspepsia ([1]; adjusted to INR 2.0 to 3.0): (1.4) %
- Adverse Event Dyspepsia, number of patients ([1]; adjusted to INR 2.0 to 3.0): 83
- Adverse Event Dyspnoea ([1]; adjusted to INR 2.0 to 3.0): (9.2) %
- Adverse Event Dyspnoea, number of patients ([1]; adjusted to INR 2.0 to 3.0): 550
- Adverse Event Fatigue ([1]; adjusted to INR 2.0 to 3.0): (5.9) %
- Adverse Event Fatigue, number of patients ([1]; adjusted to INR 2.0 to 3.0): 353
- Adverse Event Nasopharyngitis ([1]; adjusted to INR 2.0 to 3.0): (5.5) %
- Adverse Event Nasopharyngitis, number of patients ([1]; adjusted to INR 2.0 to 3.0): 327
- Adverse Event Peripheral edema ([1]; adjusted to INR 2.0 to 3.0): (7.6) %
- Adverse Event Peripheral edema, number of patients ([1]; adjusted to INR 2.0 to 3.0): 453
- Adverse Event Upper respiratory tract infection ([1]; adjusted to INR 2.0 to 3.0): (5.0) %
- Adverse Event Upper respiratory tract infection, number of patients ([1]; adjusted to INR 2.0 to 3.0): 297
- Adverse Event Urinary tract infection ([1]; adjusted to INR 2.0 to 3.0): (5.3) %
- Adverse Event Urinary tract infection, number of patients ([1]; adjusted to INR 2.0 to 3.0): 315
- Life threatening bleeding, Rate ([1]; adjusted to INR 2.0 to 3.0): 1.80 /100 Person Years
- Mortality rate (death from any cause) ([1]; adjusted to INR 2.0 to 3.0): 4.13 % per year
- Other Major bleeding, Rate ([1]; adjusted to INR 2.0 to 3.0): 1.80 /100 Person Years
- Pulmonary embolism, Rate ([1]; adjusted to INR 2.0 to 3.0): 0.09 /100 Person Years
- Rate of hemorrhagic stroke ([1]; adjusted to INR 2.0 to 3.0): 0.38 % per year
- Rate of major hemorrhage (major bleeding) ([1]; adjusted to INR 2.0 to 3.0): 3.46 % per year
- Rate of myocardial infarction ([1]; adjusted to INR 2.0 to 3.0): 0.54 % per year
- Rate of net benefit-risk outcome (major vascular events, major bleeding and death) ([1]; adjusted to INR 2.0 to 3.0): 7.99 % per year
- Rate of primary outcome stroke or systemic embolism ([1]; adjusted to INR 2.0 to 3.0): 1.70 % per year
- Reason for discontinuation: Gastrointestinal bleeding ([1]; adjusted to INR 2.0 to 3.0): (0.9) %
- Reason for discontinuation: Gastrointestinal disorders (including pain, vomiting and diarrhea) ([1]; adjusted to INR 2.0 to 3.0): (0.8) %
- Reason for discontinuation: Outcome event ([1]; adjusted to INR 2.0 to 3.0): (2.2) %
- Reason for discontinuation: Patient decision ([1]; adjusted to INR 2.0 to 3.0): (6.2) %
- Reason for discontinuation: SAE ([1]; adjusted to INR 2.0 to 3.0): (1.6) %
- Reason for discontinuation: SAE, number of patients ([1]; adjusted to INR 2.0 to 3.0): 95
- Stroke, systemic embolism, pulmonary embolism, myocardial infarction death or major bleed (net benefit), Rate ([1]; adjusted to INR 2.0 to 3.0): 7.99 /100 Person Years
- Study Drug Discontinuation At one year ([1]; adjusted to INR 2.0 to 3.0): 10%
- Study Drug Discontinuation At two years ([1]; adjusted to INR 2.0 to 3.0): (19) %
- hepatobiliary disorders (AE) ([1]; adjusted to INR 2.0 to 3.0): (2.2) %
- hepatobiliary disorders (AE), number of patients ([1]; adjusted to INR 2.0 to 3.0): 132
- hepatobiliary disorders (SAE) ([1]; adjusted to INR 2.0 to 3.0): (0.4) %
- hepatobiliary disorders (SAE), number of patients ([1]; adjusted to INR 2.0 to 3.0): 25
- Rate of discontinuation ([1]; adjusted to INR 2.0 to 3.0, at 2.5 years): 19%
- Study Drug Discontinuation At one year ([1]; adjusted to INR 2.0 to 3.0, listed as Warfarin): (10) %
